Patent US20050118226A1, “Methods for treating ACAT-related diseases” (priority 2003, published 2005)

Columns and labels:
Assay type in all cases: in vivo, mouse
endogenous APP = assay: Western blot of endogenous APP processing in brains of non-transgenic littermates
Method: For Western blot analyses, frozen hemispheres of non-transgenic littermates were homogenized in TBS buffer containing 5 mM EDTA, 1 mM 1,10-phenanthroline (ICN Biomedicals), 20 μM ALLN (BioMol) and a protease inhibitor mixture (Roche). Homogenates were centrifuged at 100000 g for 1 hour at +4° C. The supernatants were used for analyses of secreted APP forms and ApoE, while the pellets extracted with the homogenization buffer containing 1% Triton X-100 and 0.2% SDS. 120 μg of total protein were resolved on 4-12% or 12% NuPAGE Bis-Tris gels (Invitrogen) under reducing conditions, and Western blots were performed as described previously (Puglielli et al., 2001). For analysis of Notch-ICD (NICD), 250 μg of total protein was immunoprecipitated with an NICD-specific antibody (cleavage site (Val1744)-specific; Cell Signaling Technology) according to manufacturer's recommendations. Antibodies used for Western blots were R1736 (specific for sAPP-α; a gift from Dr. D. J. Selkoe, Brigham and Women's Hospital, Boston, Mass.), Abl4 (PS 1-NTF; a gift from Dr. S. E. Gandy, Thomas Jefferson University, Philadelphia, Pa.), Pen2 (a gift from Dr. S. S. Sisodia, University of Chicago, Chicago, Ill.), N-Cadherin (C32, C-terminal; BD Transduction Laboratories), ApoE (Santa Cruz Biotechnology), β-tubulin (Sigma), BACE1 and Nicastrin (Affinity BioReagents). Rbt×APP (CTF), 22C11 (APP-NTF) and Rbt×PSI (PS 1-CTF) were from Chemicon International. BACE stainings (N-terminal; Affinity BioReagents) were confirmed with two additional antibodies; Ms×BACE1 (Chemicon International) and BACE (C-terminal; Affinity BioReagents). Densitometric analyses were performed using the QuantityOne software package (Bio-Rad). Statistical significance was determined by Student's t test. For Western blot analyses shown in supplemental figures, neutralized formic acid fractions (approximately 100 μg of total protein) were precipitated by adding 50% trichloroacetic acid to 15.5% final concentration. After 30 min incubation and centrifugation at 4° C., the pellets were solubilized by adding 10 μl of 2M Tris base and 10 μl of 4×LDS-PAGE loading buffer (NuPage, Invitrogen). Before loading, the samples were incubated for 30 min at 37° C., freeze-thawed once and boiled. Western blot analysis was performed as described above.
Our previous cell-based studies have shown that ACAT inhibition reduces Aβ generation and alters APP processing by all three secretases (Puglielli et al., 2001). To determine whether CP-113,818 treatment modified brain APP processing in hAPP mice, we initially resolved formic acid-extracted brain proteins by SDS-PAGE to detect APP and its proteolytic derivatives. […]

Aβ1-40 and Aβ1-42 = assay: Sandwich ELISA of brain Aβ1-40 and Aβ1-42 in hAPP mice
Method: For Aβ determinations, frozen hemispheres were first homogenized in TBS-buffer (5 ml) containing a protease inhibitor cocktail (Protease Inhibitor Cocktail Set I, Calbiochem) and then centrifuged at 75000 g for 1 hour, as described elsewhere (Kawarabayashi et al., 2001). Supernatants were saved for soluble Aβ analyses (see below). Pellets were resuspended and further homogenized in 70% formic acid (1 ml), followed by centrifugation at 75000 g for 1 hour. Formic acid-supernatants were neutralized with 1M TRIS (19 ml) and used for ELISA determination (insoluble Aβ). Aβ1-40 and Aβ1-42 were assayed using commercially available ELISA kits (The Genetics Company®, Switzerland). Measurements were performed at least in duplicate. Soluble Aβ ELISAs: secreted Aβ1-40 and Aβ1-42 levels in the TBS homogenate were analyzed by a sandwich ELISA system as described previously using the following antibodies: Aβ40=MM27 33.1.1 capture, MM32 13.1.1 for detection; Aβ42=MM27 33.1.1 capture, MM26 4.1.3 for detection (Suzuki et al., 1994).
We next used a sandwich enzyme-linked immunosorbent assay (ELISA) to measure Aβ1-40 and Aβ1-42 levels in 70% formic acid extracts from brain homogenates (“insoluble” Aβ) and in the initial TBS fraction of the same homogenates (soluble Aβ). Similar to plaque load, Aβ levels varied widely, as expected in transgenic mice specifically at early stages of pathology (Johnson-Wood et al., 1997; Kawarabayashi et al., 2001). Treatment with CP-113,818 decreased Aβ1-40 and Aβ1-42 in the formic acid fraction to almost undetectable concentrations. […] Since brain extracts were obtained from entire hemispheres including cortices and hippocampi, the difference between male and female Aβ levels at this age was accentuated by the slowly developing amyloid pathology in male hippocampi (see FIG. 3B). When analyzed according to gender, only female “insoluble” Aβ was sufficiently elevated to obtain a highly significant decrease by CP-113,818 treatment, with Aβ1-40 down by 96% (p<0.014) and Aβ1-42 down by 90% (p<0.014; FIG. 5A). […] This decrease was statistically significant in both genders. Soluble Aβ1-40 levels were close to the limit of detection, but a trend toward decrease was observed (20%) in all animals, significant only in males (FIG. 5B).

APP = assay: Western blot of APP and fragments in formic acid brain extracts of hAPP mice
Method: For Western blot analyses, frozen hemispheres of non-transgenic littermates were homogenized in TBS buffer containing 5 mM EDTA, 1 mM 1,10-phenanthroline (ICN Biomedicals), 20 μM ALLN (BioMol) and a protease inhibitor mixture (Roche). Homogenates were centrifuged at 100000 g for 1 hour at +4° C. The supernatants were used for analyses of secreted APP forms and ApoE, while the pellets extracted with the homogenization buffer containing 1% Triton X-100 and 0.2% SDS. 120 μg of total protein were resolved on 4-12% or 12% NuPAGE Bis-Tris gels (Invitrogen) under reducing conditions, and Western blots were performed as described previously (Puglielli et al., 2001). For analysis of Notch-ICD (NICD), 250 μg of total protein was immunoprecipitated with an NICD-specific antibody (cleavage site (Val1744)-specific; Cell Signaling Technology) according to manufacturer's recommendations. […] Densitometric analyses were performed using the QuantityOne software package (Bio-Rad). Statistical significance was determined by Student's t test. […]

[1] = female hAPP mice, brain formic acid extracts
[2] = hAPP mice, all animals, brain formic acid extracts

## CCCCCCCC[C@H](SCCCCCC)C(=O)Nc1c(SC)cc(C)nc1SC [CP-113,818]
Endogenous APP
  decrease in the ratio between total sAPP and sAPPα: 36%
Endogenous APP; brain lysates, normalized to APP holoprotein, vs placebo
  decrease of endogenous mouse APP-CTF levels: 44%
Endogenous APP; soluble TBS fraction
  reduction of total sAPP: 19.1%
Endogenous APP; soluble TBS fraction, trend, n.s.
  decrease of sAPPα: 3.4%
Aβ1-40 and Aβ1-42; [1]
  decrease in insoluble Aβ1-40, females: 96%
  decrease in insoluble Aβ1-42, females: 90%
Aβ1-40 and Aβ1-42; hAPP mice, TBS fraction lacking detergents
  reduction of soluble Aβ1-42: 34%
Aβ1-40 and Aβ1-42; [2]
  decrease in insoluble Aβ1-40: 92%
  decrease in insoluble Aβ1-42: 83%
Aβ1-40 and Aβ1-42; hAPP mice, insoluble Aβ
  Aβ1-42/Aβ1-40 ratio: no significant difference
Aβ1-40 and Aβ1-42; transgenic mice
  decrease of "insoluble" Aβ (summary): 83-99%
APP
  full-length APP and APP C-terminal fragments C83 and C99: unchanged
APP; adjusted to full-length APP
  decrease of sAPP levels: 60%
